Assay results from patent US11718604B2, “4-amino-6-(1,3-benzodioxole)picolinates and their use as herbicides” (Dow AgroSciences LLC, priority 2018, dated 2023).

Experiments:
Assay type in all cases: in vivo
[1] = test system: SORVU: shattercane (Sorghum bicolor); test: Post-emergent herbicidal test, shattercane; conditions: post-emergence, 336 h, 14 days after application, read-out: Visual Growth Reduction (%) 14 Days After Application SORVU; for pest or weed control at 17.5 g/ha: 17.5 g ai/ha; for pest or weed control at 35 g/ha: 35 g ai/ha; for pest or weed control at 70 g/ha: 70 g ai/ha; for pest or weed control at 140 g/ha: 140 g ai/ha
Method in brief: (§1)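 Post-emergence foliar spray, 187 L/ha, 1st–2nd true leaf plants; vehicle acetone/DMSO/IPA/water + Atplus 411F + Triton X-155; solvent-blank controls; subirrigated; 14 d greenhouse, visual % injury.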

[2] = test system: CIRAR: Canada thistle (Cirsium arvense); test: Post-emergent herbicidal test, Canada thistle; conditions: post-emergence, 336 h, 14 days after application, read-out: Visual Growth Reduction (%) 14 Days After Application CIRAR; for pest or weed control at 17.5 g/ha: 17.5 g ai/ha; for pest or weed control at 35 g/ha: 35 g ai/ha; for pest or weed control at 70 g/ha: 70 g ai/ha; for pest or weed control at 140 g/ha: 140 g ai/ha
Method in brief: as §1

[3] = test system: VIOTR: wild violet (Viola tricolor); test: Post-emergent herbicidal test, wild violet; conditions: post-emergence, 336 h, 14 days after application, read-out: Visual Growth Reduction (%) 14 Days After Application VIOTR; for pest or weed control at 17.5 g/ha: 17.5 g ai/ha; for pest or weed control at 35 g/ha: 35 g ai/ha; for pest or weed control at 70 g/ha: 70 g ai/ha; for pest or weed control at 140 g/ha: 140 g ai/ha
Method in brief: as §1

[4] = test system: CYPES: yellow nutsedge (Cyperus esculentus); test: Post-emergent herbicidal test, yellow nutsedge; conditions: post-emergence, 336 h, 14 days after application, read-out: Visual Growth Reduction (%) 14 Days After Application CYPES; for pest or weed control at 17.5 g/ha: 17.5 g ai/ha; for pest or weed control at 35 g/ha: 35 g ai/ha; for pest or weed control at 70 g/ha: 70 g ai/ha; for pest or weed control at 140 g/ha: 140 g ai/ha
Method in brief: as §1

[5] = test system: ABUTH: velvetleaf (Abutilon theophrasti); test: Post-emergent herbicidal test, velvetleaf; conditions: post-emergence, 336 h, 14 days after application, read-out: Visual Growth Reduction (%) 14 Days After Application ABUTH; for pest or weed control at 17.5 g/ha: 17.5 g ai/ha; for pest or weed control at 35 g/ha: 35 g ai/ha; for pest or weed control at 70 g/ha: 70 g ai/ha; for pest or weed control at 140 g/ha: 140 g ai/ha
Method in brief: as §1

[6] = test system: BRSNN: oilseed rape, canola (Brassica napus); test: Post-emergent herbicidal test, oilseed rape; conditions: post-emergence, 336 h, 14 days after application, read-out: Visual Growth Reduction (%) 14 Days After Application BRSNN; for pest or weed control at 17.5 g/ha: 17.5 g ai/ha; for pest or weed control at 35 g/ha: 35 g ai/ha; for pest or weed control at 70 g/ha: 70 g ai/ha; for pest or weed control at 140 g/ha: 140 g ai/ha
Method in brief: as §1

[7] = test system: SETFA: giant foxtail (Setaria faberi); test: Post-emergent herbicidal test, giant foxtail; conditions: post-emergence, 336 h, 14 days after application, read-out: Visual Growth Reduction (%) 14 Days After Application SETFA; for pest or weed control at 17.5 g/ha: 17.5 g ai/ha; for pest or weed control at 35 g/ha: 35 g ai/ha; for pest or weed control at 70 g/ha: 70 g ai/ha; for pest or weed control at 140 g/ha: 140 g ai/ha
Method in brief: as §1

[8] = test system: IPOHE: ivyleaf morningglory (Ipomoea hederacea); test: Post-emergent herbicidal test, ivyleaf morningglory; conditions: post-emergence, 336 h, 14 days after application, read-out: Visual Growth Reduction (%) 14 Days After Application IPOHE; for pest or weed control at 17.5 g/ha: 17.5 g ai/ha; for pest or weed control at 35 g/ha: 35 g ai/ha; for pest or weed control at 70 g/ha: 70 g ai/ha; for pest or weed control at 140 g/ha: 140 g ai/ha
Method in brief: as §1

[9] = test system: ECHCG: barnyardgrass (Echinochloa crus-galli); test: Post-emergent herbicidal test, barnyardgrass; conditions: post-emergence, 336 h, 14 days after application, read-out: Visual Growth Reduction (%) 14 Days After Application ECHCG; for pest or weed control at 17.5 g/ha: 17.5 g ai/ha; for pest or weed control at 35 g/ha: 35 g ai/ha; for pest or weed control at 70 g/ha: 70 g ai/ha; for pest or weed control at 140 g/ha: 140 g ai/ha
Method in brief: as §1

[10] = test system: DIGSA: large crabgrass (Digitaria sanguinalis); test: Post-emergent herbicidal test, large crabgrass; conditions: post-emergence, 336 h, 14 days after application, read-out: Visual Growth Reduction (%) 14 Days After Application DIGSA; for pest or weed control at 17.5 g/ha: 17.5 g ai/ha; for pest or weed control at 35 g/ha: 35 g ai/ha; for pest or weed control at 70 g/ha: 70 g ai/ha; for pest or weed control at 140 g/ha: 140 g ai/ha
Method in brief: as §1

[11] = test system: EPHHL: wild poinsettia (Euphorbia heterophylla); test: Post-emergent herbicidal test, wild poinsettia; conditions: post-emergence, 336 h, 14 days after application, read-out: Visual Growth Reduction (%) 14 Days After Application EPHHL; for pest or weed control at 17.5 g/ha: 17.5 g ai/ha; for pest or weed control at 35 g/ha: 35 g ai/ha; for pest or weed control at 70 g/ha: 70 g ai/ha; for pest or weed control at 140 g/ha: 140 g ai/ha
Method in brief: as §1

## COC(=O)c1nc(-c2ccc(Br)c3c2OC(F)(F)O3)c(F)c(N)c1Cl [Compound 9]
[1]
  pest or weed control at 17.5 g/ha: 0%
  pest or weed control at 35 g/ha: 0%
  pest or weed control at 70 g/ha: 10%
  pest or weed control at 140 g/ha: 10%
[2]
  pest or weed control at 17.5 g/ha: 70%
  pest or weed control at 35 g/ha: 80%
  pest or weed control at 70 g/ha: 85%
  pest or weed control at 140 g/ha: 85%
[3]
  pest or weed control at 17.5 g/ha: 0%
  pest or weed control at 35 g/ha: 0%
  pest or weed control at 70 g/ha: 20%
  pest or weed control at 140 g/ha: 20%
[4]
  pest or weed control at 17.5 g/ha: 0%
  pest or weed control at 35 g/ha: 0%
  pest or weed control at 70 g/ha: 0%
  pest or weed control at 140 g/ha: 0%
[5]
  pest or weed control at 17.5 g/ha: 80%
  pest or weed control at 35 g/ha: 85%
  pest or weed control at 70 g/ha: 85%
  pest or weed control at 140 g/ha: 85%
[6]
  pest or weed control at 17.5 g/ha: 60%
  pest or weed control at 35 g/ha: 60%
  pest or weed control at 70 g/ha: 75%
  pest or weed control at 140 g/ha: 75%
[7]
  pest or weed control at 17.5 g/ha: 0%
  pest or weed control at 35 g/ha: 0%
  pest or weed control at 70 g/ha: 0%
  pest or weed control at 140 g/ha: 0%
[8]
  pest or weed control at 17.5 g/ha: 0%
  pest or weed control at 35 g/ha: 0%
  pest or weed control at 70 g/ha: 0%
  pest or weed control at 140 g/ha: 0%
[9]
  pest or weed control at 17.5 g/ha: 0%
  pest or weed control at 35 g/ha: 0%
  pest or weed control at 70 g/ha: 0%
  pest or weed control at 140 g/ha: 0%
[10]
  pest or weed control at 17.5 g/ha: 0%
  pest or weed control at 35 g/ha: 0%
  pest or weed control at 70 g/ha: 0%
  pest or weed control at 140 g/ha: 0%
[11]
  pest or weed control at 17.5 g/ha: 0%
  pest or weed control at 35 g/ha: 0%
  pest or weed control at 70 g/ha: 0%
  pest or weed control at 140 g/ha: 0%

## COC(=O)c1nc(-c2ccc(I)c3c2OC(F)(F)O3)c(F)c(N)c1Cl [Compound 10]
[1]
  pest or weed control at 17.5 g/ha: 0%
  pest or weed control at 35 g/ha: 0%
  pest or weed control at 70 g/ha: 0%
  pest or weed control at 140 g/ha: 0%
[2]
  pest or weed control at 17.5 g/ha: 60%
  pest or weed control at 35 g/ha: 70%
  pest or weed control at 70 g/ha: 70%
  pest or weed control at 140 g/ha: 75%
[3]
  pest or weed control at 17.5 g/ha: 0%
  pest or weed control at 35 g/ha: 0%
  pest or weed control at 70 g/ha: 0%
  pest or weed control at 140 g/ha: 0%
[4]
  pest or weed control at 17.5 g/ha: 0%
  pest or weed control at 35 g/ha: 0%
  pest or weed control at 70 g/ha: 0%
  pest or weed control at 140 g/ha: 0%
[5]
  pest or weed control at 17.5 g/ha: 65%
  pest or weed control at 35 g/ha: 70%
  pest or weed control at 70 g/ha: 75%
  pest or weed control at 140 g/ha: 75%
[6]
  pest or weed control at 17.5 g/ha: 50%
  pest or weed control at 35 g/ha: 60%
  pest or weed control at 70 g/ha: 65%
  pest or weed control at 140 g/ha: 70%
[7]
  pest or weed control at 17.5 g/ha: 0%
  pest or weed control at 35 g/ha: 0%
  pest or weed control at 70 g/ha: 0%
  pest or weed control at 140 g/ha: 0%
[8]
  pest or weed control at 17.5 g/ha: 0%
  pest or weed control at 35 g/ha: 0%
  pest or weed control at 70 g/ha: 0%
  pest or weed control at 140 g/ha: 0%
[9]
  pest or weed control at 17.5 g/ha: 0%
  pest or weed control at 35 g/ha: 0%
  pest or weed control at 70 g/ha: 0%
  pest or weed control at 140 g/ha: 0%
[10]
  pest or weed control at 17.5 g/ha: 0%
  pest or weed control at 35 g/ha: 0%
  pest or weed control at 70 g/ha: 0%
  pest or weed control at 140 g/ha: 0%
[11]
  pest or weed control at 17.5 g/ha: 0%
  pest or weed control at 35 g/ha: 0%
  pest or weed control at 70 g/ha: 0%
  pest or weed control at 140 g/ha: 0%
